Read-outs that look alike come from different tables or passages of the source. Positions of bridges follow the written chain, without caps; N, C: chain ends. Non-standard residues stand in square brackets, D forms with d. Residues, ends and D or L forms follow the SMILES beside them.
Legend:
[1] = cited from earlier work; for half-life: see Table 1
[2] = cited from earlier work
[3] = Trial of bedtime versus awakening administered Valsartan, blood pressure; assay type: in vivo
Description: Taking an angiotensin receptor blocker (ARB) or an […] (ACE) inhibitor before bedtime is known to cause a drop in blood pressure. […] Thus, current treatment methods are insufficient to induce a dip in non-dippers.

[4] = half-life of therapeutic compound as listed in Table 1
[5] = half-life of top selling therapeutic compounds (Table 1)

Row | Compound | ½ Life ([1]; in vivo) [h] | further results
1 | CC(C)CC(N(C)C)C1(c2ccc(Cl)cc2)CCC1 (stereo not shown) [Sibutramine] | 1.1 | 
2 | CCC(C)(C)C(=O)O[C@H]1C[C@@H](C)C=C2C=C[C@H](C)[C@H](CC[C@@H]3C[C@@H](O)CC(=O)O3)[C@H]21 [Simvastatin, reference compound] |  | half-life [1]: less than three
3 | CC(=O)S[C@@H]1CC2=CC(=O)CC[C@]2(C)[C@H]2CC[C@@]3(C)[C@@H](CC[C@@]34CCC(=O)O4)[C@H]12 [Spironolactone] | 0.166 | 
4 | CCC1=C(C)c2cc3[n-]c(cc4[n-]c(cc5nc(cc1n2)C(C)=C5CC)c(C)c4CCC(=O)O)c(CCC(=O)O)c3C.[Cl-].[Cl-].[Sn+4] [Stannsoporfin] | 3.8 | 
5 | CN(N=O)C(=O)N[C@@H](C=O)[C@@H](O)[C@H](O)[C@H](O)CO [Streptozocin] | 0.0833 | 
6 | O=C1C(CC[S+]([O-])c2ccccc2)C(=O)N(c2ccccc2)N1c1ccccc1 (stereo not shown) [Sulfinpyrazone] | 4 | 
7 | CNS(=O)(=O)Cc1ccc2[nH]cc(CCN(C)C)c2c1 [Sumatriptan] | 2.5 | 
8 | Nc1c2c(nc3ccccc13)CCCC2 [Tacrine] | 2 | 
9 | CC(=O)N1N=C(c2ccc(N)cc2)c2cc3c(cc2C[C@H]1C)OCO3 [Talampanel] | 3 | 
10 | CCOc1ccccc1OCCN[C@H](C)Cc1ccc(OC)c(S(N)(=O)=O)c1 [Tamsulosin] | 5 | 
11 | CC[C@@H](c1cccc(O)c1)[C@@H](C)CN(C)C [Tapentadol] | 4 | 
12 | COc1cc([C@@H]2c3cc4c(cc3[C@@H](O[C@@H]3O[C@@H]5CO[C@@H](c6cccs6)O[C@H]5[C@H](O)[C@H]3O)[C@H]3COC(=O)[C@H]23)OCO4)cc(OC)c1O [Teniposide] | 5 | 
13 | CC(C)(C)NCC(O)c1cc(O)cc(O)c1 (stereo not shown) [Terbutaline] | 5.5 | 
14 | C[C@]12CC[C@H]3[C@@H](CCC4=CC(=O)CC[C@@]43C)[C@@H]1CC[C@@H]2O [Testosterone] | 0.166 | 
15 | O=C1CCC(N2C(=O)c3ccccc3C2=O)C(=O)N1 (stereo not shown) [Thalidomide] | 5 | 
16 | CCCC(C)C1(CC)C(=O)NC(=S)NC1=O (stereo not shown) [Thiopental] | 3 | 
17 | CC(C(=O)O)c1ccc(C(=O)c2ccccc2)s1 (stereo not shown) [Tiaprofenic acid] | 1.5 | 
18 | CC(C)(C)NC[C@H](O)COc1nsnc1N1CCOCC1 [Timolol] | 2.5 | 
19 | CCCCS(=O)(=O)N[C@@H](Cc1ccc(OCCCCC2CCNCC2)cc1)C(=O)O [Tirofiban] | 2 | 
20 | Clc1ccc2nsnc2c1NC1=NCCN1 [Tizanidine] | 2.5 | 
21 | Cc1ccc(C(=O)c2ccc(CC(=O)O)n2C)cc1 [Tolmetin] | 2 | 
22 | CC[C@@]1(O)C(=O)OCc2c1cc1n(c2=O)Cc2cc3c(CN(C)C)c(O)ccc3nc2-1 [Topotecan] | 2 | 
23 | CC(C)OC(=O)CCC/C=C\C[C@@H]1[C@@H](/C=C/[C@@H](O)COc2cccc(C(F)(F)F)c2)[C@H](O)C[C@@H]1O [Travoprost] | 0.75 | 
24 | O=c1n(CCCN2CCN(c3cccc(Cl)c3)CC2)nc2ccccn12 [Trazodone] | 1 | 

Row | Compound | ½ Life ([1]; in vivo) [h] | further results
25 | CCCCC[C@H](O)CC[C@@H]1[C@H]2Cc3cccc(OCC(=O)O)c3C[C@H]2C[C@H]1O [Treprostinil] | 2 | 
26 | CC1=C(/C=C/C(C)=C/C=C/C(C)=C/C(=O)O)C(C)(C)CCC1 [Tretinoin] | 0.5 | 
27 | C[C@]12C=CC(=O)C=C1CC[C@H]1[C@@H]3C[C@@H](O)[C@](O)(C(=O)CO)[C@@]3(C)C[C@H](O)[C@@]12F [Triamcinolone] | 1.466 | 
28 | Nc1nc(N)c2nc(-c3ccccc3)c(N)nc2n1 [Triamterene] | 4.25 | 
29 | OC(CCN1CCCCC1)(c1ccccc1)C1CCCCC1 (stereo not shown) [Trihexyphenidyl] | 3.3 | 
30 | COc1cc2c3cc1Oc1cc(ccc1O)C[C@@H]1c4c(cc(OC)c(O)c4Oc4ccc(cc4)C[C@@H]3N(C)CC2)CC[N+]1(C)C [Tubocurarine] | 1 | 
31 | CCCCC(=O)N(Cc1ccc(-c2ccccc2-c2nnn[nH]2)cc1)[C@H](C(=O)O)C(C)C [Valsartan] |  | time at which concentration in plasma reaches the maximum after administration [2]: 2 to 4 h; net blood pressure difference bedtime vs awakening, first value of printed pair ([3]; bedtime minus awakening): 8 mmHg; net blood pressure difference bedtime vs awakening, second value of printed pair ([3]; bedtime minus awakening): 6 mmHg; better result of bedtime group than the awakening group ([3]; bedtime vs awakening group): 10 mmHg
32 | CC(C)[C@@H]1NC(=O)[C@H](CCCCN)NC(=O)[C@@H](Cc2c[nH]c3ccccc23)NC(=O)[C@H](Cc2ccc(O)cc2)NC(=O)[C@@H](NC(=O)[C@H](N)Cc2ccccc2)CSSC[C@@H](C(=O)N[C@@H](Cc2c[nH]c3ccccc23)C(N)=O)NC1=O [Vapreotide] (H-[dF]CY[dW]KVCW-NH2; disulfide 2-7) | 0.5 | 
33 | NC(=O)CC[C@@H]1NC(=O)[C@H](Cc2ccccc2)NC(=O)[C@H](Cc2ccc(O)cc2)NC(=O)[C@@H](N)CSSC[C@@H](C(=O)N2CCC[C@H]2C(=O)N[C@@H](CCCN=C(N)N)C(=O)NCC(N)=O)NC(=O)[C@H](CC(N)=O)NC1=O [Vasopressin] | 0.166 | 
34 | CC(=O)O[C@H]1C[C@@H]2CC[C@@H]3[C@H](CC[C@@]4(C)[C@H]3C[C@H]([N+]3(C)CCCCC3)[C@@H]4OC(C)=O)[C@@]2(C)C[C@@H]1N1CCCCC1 [Vecuronium] | 0.85 | 
35 | N#C[C@@H]1CCCN1C(=O)CNC12CC3CC(CC(O)(C3)C1)C2 [Vildagliptin] | 1.5 | 
36 | CC[C@]1(O)C[C@H]2CN(CCc3c([nH]c4ccccc34)[C@@](C(=O)OC)(c3cc4c(cc3OC)N(C=O)[C@H]3[C@@](O)(C(=O)OC)[C@H](OC(C)=O)[C@]5(CC)C=CCN6CC[C@]43[C@@H]65)C2)C1 [Vincristine] | 5 | 
37 | O=C(CCCCCCC(=O)Nc1ccccc1)NO [Vorinostat] | 2 | 
38 | CC(=O)N[C@H]1[C@H]([C@H](O)[C@H](O)CO)OC(C(=O)O)=C[C@@H]1N=C(N)N [Zanamivir] | 2.5 | 
39 | Cc1cn([C@H]2C[C@H](N=[N+]=[N-])[C@@H](CO)O2)c(=O)[nH]c1=O [Zidovudine] | 1.1 | 
40 | CN(C)CCc1c[nH]c2ccc(C[C@H]3COC(=O)N3)cc12 [Zolmitriptan] | 3 | 
41 | Cc1ccc(-c2nc3ccc(C)cn3c2CC(=O)N(C)C)cc1 [Zolpidem] | 2.6 | 
42 | CN1CCN(C(=O)OC2c3nccnc3C(=O)N2c2ccc(Cl)cn2)CC1 (stereo not shown) [Zopiclone] | 5 | 
43 | O=C(O)c1cccnc1 [niacin, reference compound] |  | ½ Life [1, 4]: 0.33 h; half-life [1]: 19.8 min
44 | Aldesleukin | 0.216 | 
45 | Alglucosidase alfa | 2.3 | 
46 | Anakinra | 4 | 
47 | Bleomycin |  | ½ Life [1, 5]: 1.916 h
48 | Corticotropin (SYSMEHFRWGKPVGKKRRPVKVYPNGAEDESAEAFPLEF; Corticotropin; UniProt P01189 138-176, looked up) |  | ½ Life [1, 5]: 0.25 h

Row | Compound | ½ Life ([1]; in vivo) [h] | further results
49 | Defibrotide | 1 | 
50 | Denileukin diftitox |  | ½ Life [1, 5]: 1.166 h
51 | Drotrecogin alfa | 5.5 | 
52 | Enoxaparin | 4.5 | 
53 | Galsulfase | 0.15 | 
54 | Heparin | 1.5 | 
55 | Insulin Detemir | 5 | 
56 | Insulin Glulisine | 0.7 | 
57 | Insulin Lispro | 1 | 
58 | Interferon Alfa-2a, Recombinant | 2 | 
59 | Interferon alfacon-1 | 1.3 | 
60 | Leptin | 0.415 | 
61 | Mecasermin | 2 | 
62 | Muromonab | 0.8 | 
63 | Nesiritide | 0.3 | 
64 | Nitroprusside | 0.033 | 
65 | OspA lipoprotein |  | ½ Life [1, 4]: 1.2 h
66 | Pegaptanib | 3 | 
67 | Pentosan Polysulfate | 4.8 | 
68 | Rituximab | 0.8 | 
69 | Tinzaparin | 1.366 | 
70 | Tositumomab | 0.8 | 
71 | Urokinase | 0.2 | 
72 | Vitamin A | 1.9 | 
